From PubChem BioAssay (NCI)
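Each compound was tested at five concentrations against cells in 96-well plates for 48 hours. Here, GI50 denotes the concentration required for 50% inhibition of growth. Definition used: TGI = concentration required for complete inhibition of growth.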

Experiments:
Experiment in all cases: DTP human tumour cell line panel, 48 h
ACHN renal = system: ACHN renal
HOP-92 NSCLC = system: HOP-92 NSCLC
M14 melanoma = system: M14 melanoma
NCI-H460 lung = system: NCI-H460 lung
RXF 393 renal = system: RXF 393 renal
SK-MEL-5 melanoma = system: SK-MEL-5 melanoma
SNB-19 CNS = system: SNB-19 CNS
UACC-62 melanoma = system: UACC-62 melanoma
BT-549 breast = system: BT-549 breast
HS 578T breast = system: HS 578T breast

SMILES	TGI (ACHN renal) [µM]	TGI (HOP-92 NSCLC) [µM]	TGI (M14 melanoma) [µM]	TGI (NCI-H460 lung) [µM]	TGI (RXF 393 renal) [µM]	TGI (SK-MEL-5 melanoma) [µM]	TGI (SNB-19 CNS) [µM]	TGI (UACC-62 melanoma) [µM]	GI50 (ACHN renal) [µM]	GI50 (BT-549 breast) [µM]	TGI (BT-549 breast) [µM]	GI50 (HS 578T breast) [µM]	TGI (HS 578T breast) [µM]	GI50 (M14 melanoma) [µM]	GI50 (NCI-H460 lung) [µM]	GI50 (RXF 393 renal) [µM]	GI50 (SNB-19 CNS) [µM]	GI50 (UACC-62 melanoma) [µM]
CC(C)(C)OC(=O)C#CC[C@H]1CCCC1/C=C/C(O)=C1/C(=O)NC(CCCNC(=O)OC(C)(C)C)C1=O (stereo partly specified)	> 100	59	> 100	61.6	30	> 100	88.5	34.9	–	–	–	–	–	–	–	–	–	–
CCOC(=O)C1=C(C)N(Cc2ccccc2)C(C)=C(C(=O)OCC)C1c1ccccc1O	> 100	50.6	> 100	> 100	60.2	30.3	> 100	50.2	–	–	–	–	–	–	–	–	–	–
CC(=O)NC(CCCNCc1ccccc1)C(=O)NCc1ccccc1 (stereo unspecified)	> 100	> 100	> 100	> 100	> 100	> 100	> 100	> 100	–	–	–	–	–	–	–	–	–	–
Cc1cc(N(CCC#N)S(=O)(=O)c2ccccc2)ccc1/C=C1N=C(/C=C/c2ccccc2)OC\1=O	> 100	–	> 100	> 100	> 100	> 100	> 100	> 100	–	–	–	–	–	–	–	–	–	–
N#C/C(=C1\OC(=O)C(c2ccc(Br)cc2)=C1O)c1ccc(Br)cc1	29.6	30	28.4	30.4	26.7	–	27.5	25.9	–	–	–	–	–	–	–	–	–	–
COc1cccc(NC(=O)CC(=O)N2N=C(N(CCC#N)c3ccc(Cl)cc3)CC2c2ccccc2)c1 (stereo unspecified)	> 100	> 100	> 100	> 100	> 100	> 100	> 100	> 100	–	–	–	–	–	–	–	–	–	–
CCCCCCCCCCCCOC(=S)NCCCC	50.5	46.9	79	53.2	56.8	–	> 100	40.6	–	–	–	–	–	–	–	–	–	–
c1cc(-c2cn3ccsc3n2)ccn1	> 100	> 100	> 100	> 100	–	> 100	> 100	> 100	–	–	–	–	–	–	–	–	–	–
CC1=NCCc2c1[nH]c1cc(O)ccc21	> 100	> 100	> 100	> 100	> 100	> 100	> 100	> 100	–	–	–	–	–	–	–	–	–	–
COc1ccc(-c2ccc(/C=N/n3c(COc4ccc(Cl)cc4Cl)n[nH]c3=S)o2)c([N+](=O)[O-])c1	> 100	–	31.6	46.3	40.2	–	> 100	> 100	45.3	21.9	50.2	40.8	> 100	16	18	16.6	28.4	34.7
N#CC(C(=O)/C(=N/NC(=O)c1ccccc1O)C(C#N)c1ccc(Cl)cc1)c1ccc(Cl)cc1 (stereo unspecified)	29.6	–	38.8	29.7	16.4	–	30.2	–	–	–	–	–	–	–	–	–	–	–
CC(=O)NNc1nc(C)c(C(=O)NNC(=O)C(=O)Nc2ccccc2C#N)s1	> 100	> 100	> 100	> 100	> 100	> 100	> 100	> 100	–	–	–	–	–	–	–	–	–	–
C=C1C(=O)O[C@H]2[C@H]1[C@H](OC(=O)/C(C)=C\C)CC(=C)[C@@H]1[C@H](O)[C@H]3O[C@@]3(C)[C@@]12O	> 100	> 100	> 100	> 100	–	> 100	> 100	> 100	–	–	–	–	–	–	–	–	–	–
Cc1ccc(C(=O)O/N=C2/CCC/C2=C\c2ccccc2)cc1	> 100	> 100	> 100	> 100	> 100	> 100	–	> 100	–	–	–	–	–	–	–	–	–	–
CN(C(=O)C12C3C4C5C3C1(C(=O)O)C5C42)C(C)(C)C (stereo unspecified)	> 100	> 100	> 100	> 100	–	> 100	> 100	> 100	–	–	–	–	–	–	–	–	–	–
Cc1ccc(-c2c(N)[n+]([O-])c3ccccc3[n+]2[O-])cc1	29.1	> 100	25.3	47	–	24.4	25.4	20.1	–	–	–	–	–	–	–	–	–	–
COc1nc(NC2OCC(OC(C)=O)C(OC(C)=O)C2OC(C)=O)c(N=CC=Nc2c(NC3OCC(OC(C)=O)C(OC(C)=O)C3OC(C)=O)nc(OC)n(C)c2=O)c(=O)n1C (stereo unspecified)	> 100	> 100	> 100	> 100	> 100	> 100	> 100	> 100	–	–	–	–	–	–	–	–	–	–
COc1c2c(c3c(c1CCC(=O)O)OC(C)(C)C=C3)OC(C)(C)C=C2	> 100	–	> 100	–	> 100	> 100	> 100	> 100	–	–	> 100	–	> 100	–	–	–	–	–
